{
  "source": "patent US20150258084A1",
  "about": "“STEM CELL COMPOSITIONS AND METHODS OF THEIR USE” (Banner Health, priority 2014, published 2015)",
  "assay_type_in_all_cases": "cell-based, rat",
  "key": {"cardiac stem cells [1]": {"test_system": "cardiac stem cells", "assay": "RNA expression analysis (real-time RT-PCR) of EMT and pluripotency markers after 7 days with TGF-β inhibitors", "experimental": "Total RNA was extracted from the cardiac stem cells using PureLink RNA Mini Kit (Life Technologies) according to the manufacturer's protocol. RNA was then quantified with a Quanti-iT RiboGreen RNA Assay Kit and assessed using a BioTek Synergy HT Microplate Reader (excitation/emission 480/520 nm). Total RNA (200 ng) was reverse-transcribed with a QuantiTect Reverse Transcription kit (Qiagen). Real-time RT-PCR was conducted using Rower SYBR Green Master Mix (Applied Biosystems) on a StepOnePlus Real-time PCR System (Applied Biosystems). Specific primers were synthesized by Life Technologies. CYPA was used as a reference gene. Data analysis was performed on StepOne software version 2.1 (Applied Biosystems) using the comparative Ct (AACt) quantitation method.\nTo determine the effect of inhibition of TGF-β signaling in cardiac stem cells on markers of epithelial/endothelial to mesenchymal transition (i.e., EMT markers) and pluripotency markers the following experiments were performed. Cardiac stem cells were isolated from sham and CHF heart tissue as described in Example 1 above. Cardiac stem cells from CHF and sham animals were treated in culture with TGF-β inhibitors SB431542 or SIS3 for 7 days and subsequently assessed for EMT and pluripotency expression by RNA expression analysis and western blotting using the techniques described above in Example 1."}, "cardiac stem cells [2]": {"test_system": "cardiac stem cells", "assay": "Differentiation potential: cardiac troponin T (TnT) immunocytochemistry", "details": "7 days in cardiac differentiation medium with 2 μmol/L Mocetinostat", "experimental": "The effects of TGF-β inhibition on the differentiation potential of cardiac stem cells was examined as follows. Cardiac stem cells were isolated from heart tissue of CHF and sham animals as described in Example 1 above. Cells were subsequently cultured in cardiac differentiation medium (EMD Millipore) supplemented with 2 μmol/L Mocetinostat (SelleckChem) in the presence or absence of TGF-β inhibitors SB431542 and SIS3 for 7 days. Expression of cardiac troponin T (TnT) was evaluated by immunocytochemistry. TnT is an accepted marker for cardiac differentiation. Cells were fixed/permeabilized with a 1:1 acetone:ethanol mixture, blocked with 3% BSA in PBS, and labeled with mouse anti-TnT primary antibody (Abcam). Specific staining was visualized using anti-mouse secondary antibodies conjugated with Alexa 568 (Molecular Probes). Nuclei were stained with 4′,6-diamidino-2-phenylindole (Invitrogen). TnT-positive cells were quantified in 5 random microscopic fields. The percentage of TnT-positive cells was calculated as the number of positively stained cells normalized to the total number of cells."}, "[3]": {"test_system": "explant-derived cardiac stem cells", "assay": "Flow cytometry of explant outgrowths cultured 21 days with TGF-β inhibitors", "experimental": "Isolated cardiac stem cells were further characterized using flow cytometry as follows. Cells were fixed in 70% ethanol and labeled with the following antibodies: c-Kit (Santa-Cruz Biotechnology), vimentin and smooth muscle actin (Abcam), and CD90 (BD Biosciences). Cells were treated with secondary antibodies corresponding to either anti-rabbit or anti-mouse IgG conjugated with Alexa 488, phycoerythrin (PE), or PE-Cy5.5 (Life Technologies). Direct labeling with FITC-conjugated CD34 and PE-Cy5.5 conjugated CD45 (BD Biosciences) antibodies was used to exclude bone marrow and hematopoietic cells. Freshly isolated bone marrow cells were used as positive controls for CD34 and CD45 labeling. For a negative control, cells were labeled with isotype IgG instead of primary antibody. Cell events were detected using a FACS Calibur flow cytometer equipped with an argon laser (BD Biosciences). Data were analyzed using CellQuest software (BD Biosciences).\nThe effects of TGF-β inhibition on the yield of explant-derived cardiac stem cells were examined as follows. Cardiac stem cells were isolated from heart tissue of CHF and sham animals as described in Example 1 above. Cells were subsequently cultured in cardiac differentiation medium (EMD Millipore) supplemented with 2 μmol/L Mocetinostat (SelleckChem) in the presence or absence of TGF-β inhibitors SB431542 and SIS3 for 21 days. Explant outgrowths were analyzed by flow cytometry as described above in Example 1."}, "cardiac explants": {"test_system": "cardiac explants", "assay": "Morphology of explant cultures after 21 days with TGF-β inhibitors", "details": "21 days in culture"}},
  "data": [
    {"smiles": "NC(=O)c1ccc(-c2nc(-c3ccc4c(c3)OCO4)c(-c3ccccn3)[nH]2)cc1", "note": "[SB431542]", "values": [
      {"measurement": "increased Sox2 expression", "setting": "cardiac stem cells [1]; CHF cardiac stem cells", "result": 4.1, "unit": "fold"},
      {"measurement": "upregulated E-cadherin expression", "setting": "cardiac stem cells [1]; CHF cardiac stem cells", "result": 3.6, "unit": "fold"},
      {"measurement": "upregulated Nanog expression", "setting": "cardiac stem cells [1]; CHF cardiac stem cells", "result": 2.4, "unit": "fold"},
      {"measurement": "increased Sox2 expression", "setting": "cardiac stem cells [1]; sham cardiac stem cells", "result": 5.2, "unit": "fold"},
      {"measurement": "reduced SMA gene expression", "setting": "cardiac stem cells [1]; sham cardiac stem cells", "result": 2, "unit": "fold"},
      {"measurement": "upregulated E-cadherin expression", "setting": "cardiac stem cells [1]; sham cardiac stem cells", "result": 6.2, "unit": "fold"},
      {"measurement": "upregulated Nanog expression", "setting": "cardiac stem cells [1]; sham cardiac stem cells", "result": 2, "unit": "fold"},
      {"measurement": "TnT+ cells", "setting": "cardiac stem cells [2]; CHF cardiac stem cells", "result": 15.4, "unit": "%"},
      {"measurement": "TnT+ cells", "setting": "cardiac stem cells [2]; sham cardiac stem cells", "result": 24.4, "unit": "%"},
      {"measurement": "decreased percentage of vimentin-positive fibroblasts", "setting": "[3]; CHF CSCs", "result": 42, "unit": "%"},
      {"measurement": "increase in the number of c-Kit+ cells", "setting": "[3]; CHF CSCs", "result": 75, "unit": "%"},
      {"measurement": "reduction of the number of SMA-positive myofibroblasts", "setting": "[3]; CHF CSCs", "result": 63.3, "unit": "%"},
      {"measurement": "decreased percentage of vimentin-positive fibroblasts", "setting": "[3]; sham CSCs", "result": 55, "unit": "%"},
      {"measurement": "increase in the number of c-Kit+ cells", "setting": "[3]; sham CSCs", "result": 36.6, "unit": "%"},
      {"measurement": "number of small, round phase-bright cell clusters compared with controls", "setting": "cardiac explants", "result": "higher number"}
    ]},
    {"smiles": "COc1cc2c(cc1OC)CN(C(=O)/C=C/c1c(-c3ccccc3)n(C)c3ncccc13)CC2", "note": "[SIS3]", "values": [
      {"measurement": "upregulated E-cadherin expression", "setting": "cardiac stem cells [1]; CHF cardiac stem cells", "result": "no effect"},
      {"measurement": "upregulated Nanog expression", "setting": "cardiac stem cells [1]; CHF cardiac stem cells", "result": "no effect"},
      {"measurement": "increased Sox2 expression", "setting": "cardiac stem cells [1]; sham cardiac stem cells", "result": 4, "unit": "fold"},
      {"measurement": "reduced SMA gene expression", "setting": "cardiac stem cells [1]; sham cardiac stem cells", "result": 5, "unit": "fold"},
      {"measurement": "upregulated E-cadherin expression", "setting": "cardiac stem cells [1]; sham cardiac stem cells", "result": 5, "unit": "fold"},
      {"measurement": "upregulated Nanog expression", "setting": "cardiac stem cells [1]; sham cardiac stem cells", "result": 2.2, "unit": "fold"},
      {"measurement": "TnT+ cells", "setting": "cardiac stem cells [2]; CHF cardiac stem cells", "result": 19.6, "unit": "%"},
      {"measurement": "TnT+ cells", "setting": "cardiac stem cells [2]; sham cardiac stem cells", "result": 36.2, "unit": "%"},
      {"measurement": "decreased percentage of vimentin-positive fibroblasts", "setting": "[3]; CHF CSCs", "result": 34, "unit": "%"},
      {"measurement": "increase in the number of c-Kit+ cells", "setting": "[3]; CHF CSCs", "result": "no effect"},
      {"measurement": "reduction of the number of CD90-positive cells", "setting": "[3]; CHF CSCs", "result": 53, "unit": "%"},
      {"measurement": "reduction of the number of SMA-positive myofibroblasts", "setting": "[3]; CHF CSCs", "result": 62.8, "unit": "%"},
      {"measurement": "decreased percentage of vimentin-positive fibroblasts", "setting": "[3]; sham CSCs", "result": 35, "unit": "%"},
      {"measurement": "increase in the number of c-Kit+ cells", "setting": "[3]; sham CSCs", "result": 52, "unit": "%"},
      {"measurement": "reduction of the number of CD90-positive cells", "setting": "[3]; sham CSCs", "result": 52.4, "unit": "%"},
      {"measurement": "number of small, round phase-bright cell clusters compared with controls", "setting": "cardiac explants", "result": "higher number"}
    ]}
  ]
}
